PMC5750218, “Protein-inspired antibiotics active against vancomycin- and daptomycin-resistant bacteria” (Nature Communications, 2018)
≈ marks a conversion by molar mass, not a printed value. Where “and” joins values, the source holds several entries; their conditions need not be identical. Equal values may be shown once. Read-outs that look alike come from different tables or passages of the source.

How the values were obtained:
Cytotoxicity MTT assay [1] = assay type: cell-based, human; conditions: human
Cytotoxicity MTT assay [2] = assay type: cell-based, human; conditions: human; remark: listed apart in the source
In short: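 Duplicate wells were used, with viability calculated against untreated and positive-control wells. Readout was MTT reduction: 2 h with 0.4 mg mL^−1 MTT, formazan dissolved in DMSO, absorbance at 570 nm. Before that, compound was applied 24 h at 37 °C over 100–0.046 µM (threefold dilutions) to HepG2 or HEK293 cells seeded 24 h earlier in DMEM/1% FBS.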

[3] = 37 °C, 20 µM
Method: (§2) Briefly, test compounds (20 μM) were prepared from a 0.2 mM H2O stock solution (40 μL in 400 μL assay volume) except eucatropine, which was 300 μg mL^−1 in 100% DMSO (10 μL in 400 μL assay volume equivalent to 23 μM). The precipitating solution was prepared by adding 5 μL of 10 mM carbutamide in DMSO to 100 mL acetonitrile (final concentration: 135.5 ng mL^−1 or 0.5 μM carbutamide). The human plasma sample (pooled normal human plasma sodium heparin anticoagulant, 2 µL, Cat No.: [sequence], BioReclamation) and phosphate-buffer saline (PBS, pH 7.4 isotonic) were pre-heated at 37 °C for 30 min. 40 μL of test compounds (0.2 mM) were added to protein-low binding Eppendorf tubes, 160 μL of buffer was added, and the mixture was vortexed. For eucatropine, 10 μL of eucatropine (300 μg mL^−1) was added to a protein-low binding Eppendorf tube, 190 μL of buffer was added, and the mixture was vortexed. In each case, 200 μL of plasma was added and the resultant mixture vortexed. For the initial time point (reaction time t = 0 h), 50 μL of sample was immediately transferred into a protein-low binding Eppendorf tube and quenched with 150 μL of the ice-cold precipitating solution, followed by vortexing and subsequent storage at 4 °C. For the remaining time points, the plasma solution was incubated and shaken (150 rpm) at 37 °C. 50 μL aliquots were collected at time points of 0, 1, 3, 6 and 24 h and quenched with 150 μL the ice-cold precipitating solution. All samples were placed in a 4 °C fridge for 30 min then centrifuged at 14,000 × g for 8 min at 4 °C. The supernatant (100 μL) was transferred to a glass vial insert and stored at 4 °C until LC-MS/MS analysis. The percentage of test compounds remaining at the individual time points relative to sample at time point 0 h were reported.

[4] = system: Bacillus subtilis ATCC 6633; test: microbe, parasite or virus in culture; assay type: cell-based; conditions: for Ac2Kaa concentration required to neutralise MIC activity / MIC: ATCC 6633, 48 h; for Molar excess of Ac2Kaa ligand required to antagonise antibacterial activity: [ligand]/[antibiotic], B. subtilis ATCC 6633, 24 h
Method: All compounds were dissolved in H2O. Bacillus subtilis ATCC® 6633™ NRS-231 was cultured in MHB at 37 °C for 48 h. A sample of each culture was then diluted 40-fold in fresh MHB and incubated at 37 °C for 18 h. Compounds were added to each row of 96-well NBS plates (NBS, Corning 3641), in duplicate. The tripeptide N,N΄-diacetyl-L-Lys-D-Ala-D-Ala was serially diluted twofold across the compound-containing wells from 6400 to 3 µg mL^−1. To this the resultant mid-log phase cultures were diluted to the final concentration of 5 × 10^5 CFU mL^−1, then added to wells of the compound-containing plates. All the plates were covered and incubated at 37 °C for 24 h.

in vitro = conditions: human, 50% human plasma (pooled, sodium heparin) in PBS, pH 7.4
Method: as §2

[5] = system: Vancomycin-resistant (VanA) Enterococcus faecium ATCC 51559; test: microbe, parasite or virus in culture
In short: (§1)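 Compounds were serially diluted twofold from 8 to 0.003 µg mL^−1 in Mueller Hinton broth. Inocula came from overnight cultures diluted 40-fold and grown a further 2–3 h.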

[6] = system: Vancomycin-intermediate S. aureus NRS1; test: microbe, parasite or virus in culture
In short: as §1

[7] = system: Multi-drug-resistant S. pneumoniae ATCC 700677; test: microbe, parasite or virus in culture
In short: as §1

[8] = system: Methicillin-resistant S. aureus ATCC 43300; test: microbe, parasite or virus in culture
In short: as §1

Haemolysis assay = assay type: cell-based; conditions: human, whole blood
Method: Haemolytic activity was measured as previously described with slight modifications, [45]. Fresh human venal blood was collected from healthy volunteers and pretreated with the anticoagulant sodium citrate. Serial twofold dilutions of each antibiotic, dissolved in 0.9% NaCl solution, were added to fresh human whole blood (50% final, vol:vol) to the final volume of 80 μL and incubated at 37 °C for 3 h on a horizontal shaker at 200 rpm. For negative and positive controls, human whole blood in 0.9% NaCl solution (A blank) and in sdH2O (A water) were used, respectively. After incubation, both test and A blank were mixed with 1 mL 0.9% NaCl solution, or sdH2O for the complete […] A water. After centrifugation of samples at 2500 rpm (700 × g) for 5 min, the release of haemoglobin was monitored by measuring the absorbance (A sample) of the supernatant at 540 nm using BMG Labtech PolarStar Omega multimode reader. The percentage of haemolysis was calculated according to the equation: %haemolysis=Asample-Ablank∕Awater-Ablank×100

MRSA = MRSA in 50% human serum / 50% MHB
Method: The compounds, along with standard antibiotics were serially diluted twofold across the wells of 96-well non-binding surface (NBS) polystyrene plates (Corning 3641). […] Standards ranged from 64 to 0.03 µg mL^−1 and compounds from 8 to 0.003 µg mL^−1 with final assay volumes of 100 µL per well. Gram-positive bacteria were cultured in Mueller Hinton broth (MHB) (Bactolaboratories, Cat. no. 211443) at 37 °C overnight. A sample of each culture was then diluted 40-fold in fresh MHB and incubated at 37 °C for 2–3 h. […] All the plates were covered and incubated at 37 °C for 24 h. MICs were the lowest concentration showing no visible growth.
The compounds, along with standard antibiotics, tested in BMD-MIC assay as above, in the presence of a mixture of 50% human serum (Sigma-Aldrich) and 50% MHB.

[9] = Critical micelle concentration assay; assay type: physicochemical; conditions: 0.2 M NaCl, DPH
Method: CMCs were determined as previously described[46] with a higher throughput modification. Briefly, a cascade dilution of each antibiotic was performed in a low binding polypropylene V-bottom shaped 96-well plates in the presence of 0.2 M NaCl solution across 12 concentrations ranging from 1000 to 0.1 μM, except the control melittin (100 to 0.01 μM). An identical cascade dilution was performed for the neutral detergent Triton X-100 and the anionic detergent sodium dodecyl sulphate (SDS) starting from 0.1% down to 0.00001% (vol:vol for Triton X-100 and wt:vol for SDS). An aliquot of […] (DPH) in DMSO was added in each well to yield the final DPH concentration of 5 μM. The reaction mixtures were mixed for 30 s and transferred in horizontal triplicate (25 μL per well) into a black falcon 384-well plate. The 384-well plate was then sealed, wrapped up in aluminium foil and incubated for 30 min at room temperature. The fluorescence intensity was monitored in real time using a BMG Labtech PolarStar Omega multimode reader fitted with 360-10 and 430-10 excitation and emission filters respectively, at an excitation wavelength of 360 nm and an emission wavelength of 430 nm.

Row | Compound | CC50 at 24 h (Cytotoxicity MTT assay [1]) | CC50 at 24 h (Cytotoxicity MTT assay [2]) | % compound remaining after incubation in 50% human plasma, 0h [3] | Ac2Kaa concentration required to neutralise MIC activity [4] | MIC [4] | Molar excess of Ac2Kaa ligand required to antagonise antibacterial activity [4] | remaining at 1 h, 20 µM (in vitro) | remaining at 6 h, 20 µM (in vitro) | remaining at 24 h, 20 µM (in vitro) | MIC VRE ([5]; ATCC 51559) | MIC VISA ([6]; Vancomycin-intermediate NRS1) | MIC MDR S.P. ([7]; ATCC 700677) | MIC MRSA ([8]; ATCC 43300, 24 h) | MIC +50% HS (MRSA) | further results
1 | CCCCCCCCCCC(=O)N[C@@H](CCCCNC(=O)[C@H]1NC(=O)[C@H]2NC(=O)[C@H](NC(=O)[C@@H]3NC(=O)[C@H](CC(N)=O)NC(=O)[C@H](NC(=O)[C@@H](CC(C)C)NC)[C@H](O)c4ccc(c(Cl)c4)Oc4cc3cc(c4O[C@@H]3O[C@H](CO)[C@@H](O)[C@H](O)[C@H]3O[C@H]3C[C@](C)(N)[C@H](O)[C@H](C)O3)Oc3ccc(cc3Cl)[C@H]2O)c2ccc(O)c(c2)-c2c(O)cc(O)cc21)C(=O)O [Compound 20, nC10CO-K(Vancomycin)-OH] | > 500 µM | > 500 µM | 100% | 12.5 µg/mL | 0.03 µg/mL (≈ 0.0172 µM) | 663 | 101% | 100% | 89% | >8 µg/mL | 1.5 µg/mL (≈ 0.859 µM) | 0.19 µg/mL (≈ 0.109 µM) | 0.125 µg/mL (≈ 0.0716 µM) | – | remaining at 3 h, 20 µM (in vitro): 101%
2 | CCCCCCCCCCCCCC(=O)NCC(=O)N[C@@H](CO)C(=O)N[C@@H](CCCCN)C(=O)N[C@@H](CCCCN)C(=O)N[C@@H](CCCCN)C(=O)N[C@@H](CSSCCNC(=O)[C@H]1NC(=O)[C@H]2NC(=O)[C@H](NC(=O)[C@@H]3NC(=O)[C@H](CC(N)=O)NC(=O)[C@H](NC(=O)[C@@H](CC(C)C)NC)[C@H](O)c4ccc(c(Cl)c4)Oc4cc3cc(c4O[C@@H]3O[C@H](CO)[C@@H](O)[C@H](O)[C@H]3O[C@H]3C[C@](C)(N)[C@H](O)[C@H](C)O3)Oc3ccc(cc3Cl)[C@H]2O)c2ccc(O)c(c2)-c2c(O)cc(O)cc21)C(=O)O [Compound 14] | 4 µM | 11 µM | 100% | > 3200 µg/mL | ≤ 0.004 µg/mL | – | 119% | 82% | 18% | 0.09 µg/mL (≈ 0.038 µM) | <0.003 µg/mL | <0.003 µg/mL | <0.003 µg/mL | – | hemolysis at 3 h (Haemolysis assay; 100 µg mL-1): 0.4%; hemolysis at 3 h (Haemolysis assay; 1600 µg mL-1): 6.4%
3 | CCCCCCCCCCCCCC(=O)NCC(=O)N[C@@H](CO)C(=O)N[C@@H](CO)C(=O)N[C@@H](CCCCN)C(=O)N[C@@H](CO)C(=O)N1CCC[C@H]1C(=O)N[C@@H](CO)C(=O)N[C@@H](CCCCN)C(=O)N[C@@H](CCCCN)C(=O)N[C@@H](CCCCN)C(=O)N[C@@H](CCCCN)C(=O)N[C@@H](CCCCN)C(=O)N[C@@H](CCCCN)C(=O)N1CCC[C@H]1C(=O)NCC(=O)N[C@@H](CC(=O)O)C(=O)N[C@@H](CSSCCNC(=O)[C@H]1NC(=O)[C@H]2NC(=O)[C@H](NC(=O)[C@@H]3NC(=O)[C@H](CC(N)=O)NC(=O)[C@H](NC(=O)[C@@H](CC(C)C)NC)[C@H](O)c4ccc(c(Cl)c4)Oc4cc3cc(c4O[C@@H]3O[C@H](CO)[C@@H](O)[C@H](O)[C@H]3O[C@H]3C[C@](C)(N)[C@H](O)[C@H](C)O3)Oc3ccc(cc3Cl)[C@H]2O)c2ccc(O)c(c2)-c2c(O)cc(O)cc21)C(N)=O [Compound 8] | – | – | – | – | – | – | – | – | – | – | – | – | – | >8 µg/mL | CC50 at 24 h (Cytotoxicity MTT assay [1]; 24 h, MTT, 1% FBS, read-out: Cytotoxicity CC50 HepG2): 10 µM; CC50 at 24 h (Cytotoxicity MTT assay [2]; 24 h, MTT, 1% FBS, read-out: Cytotoxicity CC50 HEK293): 22 µM; MIC VRE ([5]; E. faecium MDR VanA ATCC 51559, substance alone): 0.125 µg/mL (≈ 0.0357 µM); MIC VISA ([6]; S. aureus NRS1): 4 µg/mL (≈ 1.14 µM); MIC MDR S.P. ([7]; S. pneumoniae ATCC 700677): 0.5 µg/mL (≈ 0.143 µM); MIC MRSA ([8]; S. aureus ATCC 43300, NBS plates, MHB, 24 h, substance alone): 0.5 µg/mL (≈ 0.143 µM)
4 | POB2K-K-Dap-K(Vancomycin)-NHMe [Compound 27] | – | – | – | – | – | – | – | – | – | – | – | – | – | 0.25 µg/mL and 0.375 µg/mL | –
5 | CN[C@H](CC(C)C)C(=O)N[C@H]1C(=O)N[C@@H](CC(N)=O)C(=O)N[C@H]2C(=O)N[C@H]3C(=O)N[C@H](C(=O)N[C@H](C(=O)NCCCC[C@H](NC(=O)[C@H](CCCCN)NC(=O)[C@H](CCCCN)NC(=O)[C@H](CCCCNC(=O)c4ccc(Oc5ccccc5)cc4)NC(=O)c4ccc(Oc5ccccc5)cc4)C(=O)O)c4cc(O)cc(O)c4-c4cc3ccc4O)[C@H](O)c3ccc(c(Cl)c3)Oc3cc2cc(c3O[C@@H]2O[C@H](CO)[C@@H](O)[C@H](O)[C@H]2O[C@H]2C[C@](C)(N)[C@H](O)[C@H](C)O2)Oc2ccc(cc2Cl)[C@H]1O [Compound 23, POP2K-KK-K(Vancomycin)-OH] | 41 µM | 47 µM | 100% | 200 µg/mL | ≤ 0.004 µg/mL | 15,102 | 107% | 103% | 99% | 4 µg/mL (≈ 1.7 µM) | 0.5 µg/mL (≈ 0.212 µM) | <0.003 µg/mL | <0.003 µg/mL | – | critical micelle concentration (CMC) [9]: exceed 100 µM
